These results are taken from patent US5362873A, “Tetrahydropyridine derivatives” (Shionogi & Co., Ltd., priority 1990, dated 1994).

The test system of assay [1] is dopamine receptors. The settings on record: prior art, in words; cited from earlier work.
In assay [2] the test system is σ receptors. The settings on record: prior art, in words; cited from earlier work.
Assay [3] deals with PCP receptor. Kind of assay: PCP receptor binding ([3H]TCP). The settings on record: [3H]TCP 5 nM, rat cortex tissue, pH 7.8, 25° C., 30 minutes. On the procedure:
(§1) After the decapitation of rats the objective tissues were rapidly removed and each was weighed. Each tissue was homogenized with twenty-fold amount of ice-cold 50 mM […] buffer (pH7.8) homogenized, and centrifuged at 40,000×g for 10 minutes. The supernatant was removed and pellets were then resuspended in the buffer and recentrifuged. The procedure is repeated 3 times. Then these obtained samples were freeze-dried in liquid nitrogen and preserved at -80° C. On the test day the sample was thawed at room temperature and centrifuged at 40,000×g for 10 minutes, the pellets were then suspended in an incubation buffer and used as the receptor preparation. The preparation was added to the mixture containing the labelled ligand and the test drug, and filtered through Whatman GF/C filters and washed to terminate the reaction. Radioactivity on the filters was determined by a liquid scintillation counter and Ki value was calculated.
PCP receptor binding was initiated by the addition of the receptor preparation (cortex tissue, 0.2 mg protein/ml) to a mixture containing 5 nM of [^3 H]TCP and the test compound dissolved in 5 mM Tris-HCl buffer (pH 7.8). Incubation was carried out at 25° C. for 30 minutes. Specific PCP receptor binding was defined as the difference in amount of [^3 H]TCP bound to the tissue in the presence or the absence of 10 μM PCP.

For assay [4], the target named is σ receptor. Kind of assay: σ receptor binding ([3H]3PPP). The settings on record: [3H]3PPP 5 nM, rat cortex tissue, pH 7.8, 25° C., 90 minutes. On the procedure: as §1
Sigma receptor binding was initiated by the addition of the receptor preparation (cortex tissue, 0.7 mg protein/ml) to a mixture containing 5 nM of [^3 H]3PPP [3-hydroxyphenyl-N-(1-propyl)piperidine] and the test compound dissolved in 50 mM Tris-HCl buffer (pH 7.8). Incubation was carried out at 25° C. for 90 minutes. Specific sigma receptor binding was defined as the difference in amount of [^3 H]3PPP bound to the tissue in the presence or the absence of 10 μM haloperidol.

Assay [5] has as its target T1, DA2 receptor (Rattus norvegicus, UniProt P61169).
T1 construct: receptor preparation (striatal tissue, 0.3 mg protein/ml); from tissue; host or cells: rat striatal membranes
Kind of assay: DA2 receptor binding ([3H]spiroperidol). The note with it: [3H]spiroperidol 0.2 nM, rat striatal tissue, pH 7.4, 37° C., 10 minutes. On the procedure:
as §1
DA2 receptor binding was initiated by the addition of the receptor preparation (striatal tissue, 0.3 mg protein/ml) to a mixture containing 0.2 nM of [^3 H]spiroperidol and the test compound dissolved in 50 mM Tris-HCl buffer containing 100 mM-NaCl and 5 mM-KCl (pH 7.4). Incubation was carried out at 37° C. for 10 minutes. Specific DA2 receptor binding was defined as the difference in amount of [^3 H]spiroperidol bound to the tissue in the presence or the absence of 10 μM haloperidol.

In assay [6] the target is T2, 5HT2 receptor (Rattus norvegicus, UniProt P14842).
T2 construct: receptor preparation (cortex tissue, 0.5 mg protein/ml); from tissue; host or cells: rat cortex membranes
T2 sequence (P14842 whole entry): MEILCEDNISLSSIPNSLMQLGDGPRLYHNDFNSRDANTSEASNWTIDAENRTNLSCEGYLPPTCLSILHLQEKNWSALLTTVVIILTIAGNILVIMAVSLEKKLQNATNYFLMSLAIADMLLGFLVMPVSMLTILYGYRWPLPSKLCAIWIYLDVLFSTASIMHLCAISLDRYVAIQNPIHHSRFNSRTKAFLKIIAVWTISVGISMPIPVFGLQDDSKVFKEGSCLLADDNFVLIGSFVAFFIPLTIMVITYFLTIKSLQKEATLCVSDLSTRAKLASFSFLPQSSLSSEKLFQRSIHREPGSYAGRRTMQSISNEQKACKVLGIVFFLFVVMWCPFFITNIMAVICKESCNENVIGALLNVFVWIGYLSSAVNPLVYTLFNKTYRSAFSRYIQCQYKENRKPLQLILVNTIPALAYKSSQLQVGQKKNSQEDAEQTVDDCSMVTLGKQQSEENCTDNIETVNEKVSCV
Kind of assay: 5HT2 receptor binding ([3H]spiroperidol). The note with it: [3H]spiroperidol 1 nM, rat cortex tissue, pH 7.4, 37° C., 15 minutes. On the procedure: as §1
5HT2 receptor binding was initiated by the addition of the receptor preparation (cortex tissue, 0.5 mg protein/ml) to a mixture containing 1 nM of [^3 H]spiroperidol and the test compound dissolved in 50 mM Tris-HCl buffer (pH 7.4). Incubation was carried out at 37° C. for 15 minutes. Specific 5HT2 receptor binding was defined as the difference in amount of [^3 H]spiroperidol bound to the tissue in the presence or the absence of 1 mM serotonin.

T1 sequence (P61169 whole entry): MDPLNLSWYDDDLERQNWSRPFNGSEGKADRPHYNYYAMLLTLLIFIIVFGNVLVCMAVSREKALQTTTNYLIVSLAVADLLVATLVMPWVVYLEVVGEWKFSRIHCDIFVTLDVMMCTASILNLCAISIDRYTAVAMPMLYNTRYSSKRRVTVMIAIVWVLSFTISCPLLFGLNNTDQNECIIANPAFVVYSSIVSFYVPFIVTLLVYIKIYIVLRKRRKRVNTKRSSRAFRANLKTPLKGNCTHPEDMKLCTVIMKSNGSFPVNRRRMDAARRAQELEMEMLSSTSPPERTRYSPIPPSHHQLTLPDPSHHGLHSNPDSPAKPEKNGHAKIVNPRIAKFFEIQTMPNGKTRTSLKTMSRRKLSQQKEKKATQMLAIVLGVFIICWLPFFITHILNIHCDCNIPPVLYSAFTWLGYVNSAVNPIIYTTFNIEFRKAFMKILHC

`OC(CCCN1CCN(c2ncc(F)cn2)CC1)c1ccc(F)cc1` (centres unmarked) [BMY 148021]: the “affinity to dopamine receptors” value in assay [1] is recorded as “low affinity”. Also, in assay [2], the “affinity to σ receptors” value is on record as “high affinity”.
As to `O=C1CCCN1C(=O)NCCCN1CC=C(c2ccc(C(F)(F)F)cc2)CC1` [I a-2], the inhibitory constant (Ki) in assay [3] amounted to 31000 nM; in assay [4], 4.1 nM; in assay [5], 4700 nM; in assay [6], 550 nM.
For `CCCc1ccc(C2=CCN(CCCNC(=O)N3CCCC3=O)CC2)cc1` [I a-3], the Ki was found to be 15000 nM in assay [3], 9.5 nM in assay [4], 4000 nM in assay [5] and 1700 nM in assay [6].
For `CC(C)(C)c1ccc(C2=CCN(CCCNC(=O)N3CCCC3=O)CC2)cc1` [I a-6] the same measures were 49000 nM, 2.7 nM, 2200 nM and 2500 nM.
For `CC(C)(C)c1ccc(C2=CCN(CCCC(=O)N3CCCC3=O)CC2)cc1` [I a-8] the same measures were above 62000 nM, 1.3 nM, 1200 nM and 2900 nM.
For `O=C(CCCN1CC=C(c2ccc(C(F)(F)F)cc2)CC1)N1CCCC1=O` [I a-9] the same measures were 33000 nM, 6.1 nM, 1600 nM and 1200 nM.
For the molecule `CC(C)(C)c1ccc(C2=CCN(CCCNC(=O)N3CCCC3)CC2)cc1` [I a-11], the Ki in assay [3] stood at 23000 nM; in assay [4] it was 2.6 nM; in assay [5], 4500 nM; in assay [6] it was 4400 nM.
`O=C1CCCN1C(=O)NCCCCCN1CC=C(c2ccc(C(F)(F)F)cc2)CC1` [I a-13]: the Ki turned out to be 26000 nM in assay [3], 2.2 nM in assay [4], 320 nM in assay [5] and 770 nM in assay [6].
In the case of `Cc1ccc(C2=CCN(CCCN(CC(C)C)CC(C)C)CC2)cc1` [I a-24], the Ki was 32000 nM in assay [3], 5.8 nM in assay [4], 1100 nM in assay [5] and 380 nM in assay [6].
For `CNCCCN1CC=C(c2ccc(C(C)(C)C)cc2)CC1` [I a-30, 1-[(3-methylamino)propyl]-4-(4-tert-butylphenyl)-1,2,5,6-tetrahydropyridine] the same measures were above 63000 nM, 1.3 nM, 2000 nM and 3700 nM.
For `CC(C)(C)c1ccc(C2=CCN(CCCN3CCOCC3)CC2)cc1` [I a-35, 4-[3-{4-(4-tert-butylphenyl)-1,2,5,6-tetrahydropyridin-1-yl}propyl]morpholine] the same measures were 18000 nM, 1.8 nM, 4600 nM and 3200 nM.
For `CC1CCN(CCCN2CC=C(c3ccc(C(C)(C)C)cc3)CC2)CC1` [I a-56], the Ki was 44000 nM in assay [3], 6.5 nM in assay [4], 4500 nM in assay [5] and 8900 nM in assay [6].
Turning to `Cc1ccc(C2=CCN(CCCN3CCC(C)CC3)CC2)cc1` [I a-57], the Ki came to 44000 nM in assay [3], 6.3 nM in assay [4], 2400 nM in assay [5] and 140 nM in assay [6].
`CC(C)(C)c1ccc(C2=CCN(CCCN3CCSCC3)CC2)cc1` [I a-94]: the Ki is 27000 nM in assay [3], 1.3 nM in assay [4], 1400 nM in assay [5] and 1900 nM in assay [6].
For `Cc1ccc(C2=CCN(CCCN3CCOCC3)CC2)cc1` [I a-101] the same measures were above 63000 nM, 0.31 nM, 1800 nM and 7700 nM.
For `Clc1ccc(C2=CCN(CCCN3CCOCC3)CC2)cc1` [I a-102] the same measures were above 71000 nM, 0.71 nM, 3200 nM and 5700 nM.
For `FC(F)(F)c1ccc(C2=CCN(CCCOc3ccc(Cl)c(Cl)c3)CC2)cc1` [I a-111, 1-{3-(3,4-Dichlorophenoxy)propyl}-4-(4-trifluoromethylphenyl)-1,2,5,6-tetrahydropyridine] the same measures were above 63000 nM, 2.9 nM, 630 nM and 390 nM.
For `C[C@@H]1CN(CCCn2c3ccccc3c3ccccc32)C[C@H](C)N1` [rimcazole], the “affinity to dopamine receptors” value in assay [1] is listed as “low affinity”. The “affinity to σ receptors” value in assay [2] is on record as “high affinity”.

Usually Ki stands for a measure of affinity in units of concentration, obtained from inhibition or displacement. Lower therefore signals a stronger hold on the target.
